Test [1] has as its target T1, human progesterone receptor-A [PRA] isoform (Homo sapiens, UniProt P06401).
T1 construct: host or cells: insect SF21 cells (baculovirus)
T1 sequence (P06401 1-769 isoform P06401-2): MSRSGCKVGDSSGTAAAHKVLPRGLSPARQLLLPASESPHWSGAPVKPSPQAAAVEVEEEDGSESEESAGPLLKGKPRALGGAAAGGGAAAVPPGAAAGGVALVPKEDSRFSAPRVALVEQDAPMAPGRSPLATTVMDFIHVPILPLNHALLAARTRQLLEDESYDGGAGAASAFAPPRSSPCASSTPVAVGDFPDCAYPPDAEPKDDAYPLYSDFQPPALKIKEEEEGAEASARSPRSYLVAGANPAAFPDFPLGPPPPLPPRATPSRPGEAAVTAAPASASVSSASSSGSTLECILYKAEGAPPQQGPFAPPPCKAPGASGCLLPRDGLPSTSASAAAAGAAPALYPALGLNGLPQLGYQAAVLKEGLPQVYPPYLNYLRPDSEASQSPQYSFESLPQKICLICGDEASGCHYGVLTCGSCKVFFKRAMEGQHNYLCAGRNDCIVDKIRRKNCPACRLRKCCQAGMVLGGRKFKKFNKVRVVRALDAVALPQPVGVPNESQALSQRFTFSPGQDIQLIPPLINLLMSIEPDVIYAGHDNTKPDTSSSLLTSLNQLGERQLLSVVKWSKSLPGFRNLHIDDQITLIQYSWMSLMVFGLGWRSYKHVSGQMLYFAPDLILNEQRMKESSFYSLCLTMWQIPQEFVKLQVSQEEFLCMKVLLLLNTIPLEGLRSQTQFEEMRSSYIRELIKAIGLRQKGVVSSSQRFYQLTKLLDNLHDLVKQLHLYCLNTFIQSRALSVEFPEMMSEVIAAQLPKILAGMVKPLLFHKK
Description: Radioligand binding with human progesterone receptor cytosol ([3H]-progesterone competition). The following applies: read-out: Ki (nM) PR.

Test [2] concerns the target T2, human glucocorticoid receptor-α [GRX] isoform (Homo sapiens, UniProt P04150).
T2 construct: host or cells: insect SF21 cells (baculovirus)
T2 sequence (P04150 1-777): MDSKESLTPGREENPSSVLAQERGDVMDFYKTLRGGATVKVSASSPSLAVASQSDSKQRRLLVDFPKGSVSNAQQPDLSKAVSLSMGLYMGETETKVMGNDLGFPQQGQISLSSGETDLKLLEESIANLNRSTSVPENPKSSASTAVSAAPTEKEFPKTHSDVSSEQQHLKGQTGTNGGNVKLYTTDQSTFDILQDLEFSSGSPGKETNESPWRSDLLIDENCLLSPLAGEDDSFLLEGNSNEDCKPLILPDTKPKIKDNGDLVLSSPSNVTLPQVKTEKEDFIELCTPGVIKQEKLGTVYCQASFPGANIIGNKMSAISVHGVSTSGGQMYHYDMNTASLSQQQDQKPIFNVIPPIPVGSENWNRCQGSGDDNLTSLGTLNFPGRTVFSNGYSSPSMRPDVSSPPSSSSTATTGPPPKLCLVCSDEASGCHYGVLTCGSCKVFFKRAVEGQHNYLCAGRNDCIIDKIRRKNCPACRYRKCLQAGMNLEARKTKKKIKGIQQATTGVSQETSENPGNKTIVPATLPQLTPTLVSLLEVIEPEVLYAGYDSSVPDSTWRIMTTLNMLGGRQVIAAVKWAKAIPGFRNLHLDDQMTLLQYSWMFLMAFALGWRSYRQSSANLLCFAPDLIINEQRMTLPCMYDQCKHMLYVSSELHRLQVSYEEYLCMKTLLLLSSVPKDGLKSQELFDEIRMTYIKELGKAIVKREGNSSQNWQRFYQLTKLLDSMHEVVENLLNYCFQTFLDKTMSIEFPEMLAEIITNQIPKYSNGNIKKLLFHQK
Description: Radioligand binding with human glucocorticoid receptor cytosol ([3H]-dexamethasone competition).

The mark [3] stands for this setting: PRA cytosol expressed in insect SF21 cells, [3H]Prog ~0.8 nM, 4° C. overnight, Ki by Cheng-Prusoff, KL ~4.5 nM.
The mark [4] stands for this setting: GRX cytosol expressed in insect SF21 cells, [3H]-Dex ~0.9 nM, 4° C. overnight, Ki by Cheng-Prusoff, KL ~[…], read-out: Ki (nM) GR.

Read-outs that look alike come from different tables or passages of the source. A value given as a limit tells only on which side of the number the result lay.

The results in this text go back to US6506766B1 (Abbott Laboratories, priority 1998, dated 2003).

A word on the Ki: it is the equilibrium dissociation constant of an inhibitor or competing ligand from its target.

For the compound “2,5-Dihydro-9-hydroxy-10-methoxy-2,2,4-trimethyl-5-((2-fluorophenyl)methyl)-1H-[1]benzopyrano[3,4-f]quinoline [Example 385]”, the Ki was found to be 170 nM in test [1] (setting [3]) and 0.9 nM in test [2] (read-out: Ki (nM) GR).

For the compound “2,5-Dihydro-9-hydroxy-10-methoxy-5-propyl-2,2,4-trimethyl-1H-[1]benzopyrano[3,4-f]quinoline [Example 245]”, the Ki is 119 nM in test [1] and 0.95 nM in test [2] (read-out: Ki (nM) GR).

With “2,5-Dihydro-10-methoxy-5-(3,3-dimethyl-6-cyclohexenyl)-2,2,4-trimethyl-1H-[1]benzopyrano[3,4-f]quinoline [Example 146]”, the Ki in test [1] amounted to 8300 nM; in test [2] (read-out: Ki (nM) GR), 8.3 nM.

Consider “5-Butyl-2,5-dihydro-9-hydroxy-10-methoxy-2,2,4-trimethyl-1H-[1]benzopyrano[3,4-f]quinoline [Example 251]”, for which the figures for the Ki in test [1] and in test [2] (read-out: Ki (nM) GR) were 163 nM and 0.87 nM, respectively.

For the compound “9,10-Dimethoxy-5-[3-cyclohexenyl]-methoxy-2,2,4-trimethyl-2,5-dihydro-1H-[1]benzopyrano[3,4-f]quinoline [Example 291]”, the Ki amounted to 592 nM in test [1] and 8.1 nM in test [2] (read-out: Ki (nM) GR).

For the compound `COc1cccc2c1-c1ccc3c(c1C(C1C=CCC(C)(C)C1)O2)C(C)=CC(C)(C)N3` (mixture of isomers) [Example 133], the Ki in test [1] (setting [3]) stood at 4870 nM; in test [2] (setting [4]) it was 3.6 nM.

Turning to `COc1cccc2c1-c1ccc3c(c1C(C1C=CCCC1)O2)C(C)=CC(C)(C)N3` (mixture of isomers) [Example 137], the Ki in test [1] (setting [3]) came to 2410 nM; in test [2] (Ki (nM) GR) it was 5.5 nM.

Take `C=C1CCCCC1C1Oc2cccc(OC)c2-c2ccc3c(c21)C(C)=CC(C)(C)N3` (mixture of isomers) [Example 141, 2,5-Dihydro-10-methoxy-5-(1-methylene-2-cyclohexyl)-2,2,4-trimethyl-1H-[1]benzopyrano[3,4-f]quinoline]: the Ki was at least 10000 nM in test [1] (setting [3]) and 10 nM in test [2] (Ki (nM) GR).

For `COc1cccc2c1-c1ccc3c(c1C(CC(O)CO)O2)C(C)=CC(C)(C)N3` (mixture of isomers) [Example 174, 2,5-Dihydro-10-methoxy-5-(1,2-dihydroxy-3-propyl)-2,2,4-trimethyl-1H-[1]benzopyrano[3,4-f]quinoline], the Ki in test [1] (setting [3]) is at least 10000 nM; in test [2] (setting [4]), 270 nM.

For `COc1c(O)ccc2c1-c1ccc3c(c1C(C1C=CCCC1)O2)C(C)=CC(C)(C)N3` (racemic) [Example 236], the inhibition constant (Ki) was determined as 36.2 nM in test [1] (setting [3]) and 0.89 nM in test [2] (setting [4]).

For `COc1c(O)ccc2c1-c1ccc3c(c1[C@H]([C@H]1C=C(C)CCC1)O2)C(C)=CC(C)(C)N3` (racemic) [Example 243, (+/−)(5S,3′R)2,5-Dihydro-9-hydroxy-10-methoxy-2,2,4-trimethyl-5-(1-methylcyclohexen-3-yl)-1H-[1]benzopyrano[3,4-f]quinoline], the Ki in test [1] (setting [3]) was 21.2 nM; in test [2] (setting [4]) it was 1.6 nM.

Consider `COc1c(O)ccc2c1-c1ccc3c(c1C(c1c(F)c(F)c(F)c(F)c1F)O2)C(C)=CC(C)(C)N3` (racemic) [Example 269, (±)2,5-Dihydro-9-hydroxy-10-methoxy-2,2,4-trimethyl-5-(2,3,4,5,6-pentafluorophenyl)-1H-[1]benzopyrano[3,4-f]quinoline], for which the Ki stood at 2470 nM in test [1] (setting [3]) and 17.1 nM in test [2] (setting [4]).

With `COC(=O)C1=C[C@@H]([C@@H]2Oc3ccc(O)c(OC)c3-c3ccc4c(c32)C(C)=CC(C)(C)N4)CC1` (racemic) [Example 271, (+/−)2,5-Dihydro-9-hydroxy-10-methoxy-2,2,4-trimethyl-5(S)-(3(S)-1-methylcarboxylatecyclopenten-3-yl)-1H-[1]benzopyrano[3,4-f]quinoline], the results for the Ki in test [1] (setting [3]) and in test [2] (setting [4]) were 2290 nM and 0.82 nM, respectively.

`COc1c(O)ccc2c1-c1ccc3c(c1C(c1ccccc1C)O2)C(C)=CC(C)(C)N3` (racemic) [Example 275, (±)2,5-Dihydro-9-hydroxy-10-methoxy-2,2,4-trimethyl-5-(2-methylphenyl)-1H-[1]benzopyrano[3,4-f]quinoline]: the results for the Ki in test [1] (setting [3]) and in test [2] (setting [4]) were 2870 nM and 11.7 nM, respectively.

Consider `COc1c(C)ccc2c1-c1ccc3c(c1C(C1C=C(C)CCC1)O2)C(C)=CC(C)(C)N3` (racemic) [Example 307, (+/−)2,5-Dihydro-9-methyl-10-methoxy-2,2,4-trimethyl-5-(1-methylcyclohexen-3-yl)-1H-[1]benzopyrano[3,4-f]quinoline], for which the figures for the Ki in test [1] (setting [3]) and in test [2] (setting [4]) were 27.8 nM and 4.6 nM, respectively.

With `CC1=CC(C)(C)Nc2ccc3c(c21)C(c1ccccc1)Oc1cccc(Cl)c1-3` (racemic) [Example 310, (+/−)2,5-Dihydro-10-chloro-2,2,4-trimethyl-5-phenyl-1H-[1]benzopyrano[3,4-f]quinoline], the figures for the Ki in test [1] (setting [3]) and in test [2] (setting [4]) were 382 nM and 4.4 nM, respectively.

As for `C=CCC1Oc2ccc(OC(=O)CCCNC(C)=O)c(OC)c2-c2ccc3c(c21)C(C)=CC(C)(C)N3` (racemic) [Example 344, (+/−)2,5-Dihydro-9-(4-acetamidobutanoyloxy)-10-methoxy-2,2,4-trimethyl-5-allyl-1H-[1]benzopyranol[3,4-f]quinoline], the Ki in test [1] (setting [3]) stood at 76.7 nM; in test [2] (setting [4]), 0.46 nM.

Consider `C=CCC1Oc2ccc(OCC#N)c(OC)c2-c2ccc3c(c21)C(C)=CC(C)(C)N3` (racemic) [Example 377, (+/−)2,5-Dihydro-9-cyanomethoxy-10-methoxy-2,2,4-trimethyl-5-allyl-1H-[1]benzopyrano[3,4-f]quinoline], for which the Ki in test [1] (setting [3]) was found to be 3080 nM; in test [2] (setting [4]), 51 nM.

With `C=CCC1Oc2ccc(OC(=O)CCNC(C)=O)c(OC)c2-c2ccc3c(c21)C(C)=CC(C)(C)N3` (racemic) [Example 428, (+/−)2,5-Dihydro-9-(3-acetamido-propanoyloxy)-10-methoxy-2,2,4-trimethyl-5-allyl-1H-[1]benzopyrano[3,4-f]quinoline], the Ki in test [1] (setting [3]) worked out at 204 nM; in test [2] (setting [4]), 0.91 nM.

Turning to `CC1=CC(C)(C)Nc2ccc3c(c21)C(Cc1ccccc1)Oc1ccc(O)c(Cl)c1-3` (racemic) [Example 429, (+/−)2,5-Dihydro-9-hydroxy-10-chloro-2,2,4-trimethyl-5-benzyl-1H-[1]benzopyrano[3,4-f]quinoline], the Ki came to 29.1 nM in test [1] (setting [3]) and 4.1 nM in test [2] (setting [4]).

In the case of `C=CCC1Oc2ccc(OC(=O)CNC(N)=O)c(OC)c2-c2ccc3c(c21)C(C)=CC(C)(C)N3` (racemic) [Example 432, (+/−)2,5-Dihydro-9-(N-carbamoyl-2-aminoacetoxy)-10-methoxy-2,2,4-trimethyl-5-allyl-1H-[1]benzopyrano[3,4-f]quinoline], the inhibition constant (Ki) in test [1] (setting [3]) worked out at 207 nM; in test [2] (setting [4]) it was 1.4 nM.

Turning to `C=CCC1Oc2ccc(OCCCC(=O)OCC)c(OC)c2-c2ccc3c(c21)C(C)=CC(C)(C)N3` (racemic) [Example 433, (+/−)2,5-Dihydro-9-(4-ethoxy-4-oxo-butoxy)-10-methoxy-2,2,4-trimethyl-5-allyl-1H-[1]benzopyrano[3,4-f]quinoline], the Ki in test [1] (setting [3]) came to 1410 nM; in test [2] (setting [4]), 30.2 nM.

As for `C=CCC1Oc2ccc(OC(=O)CCC(C)=O)c(OC)c2-c2ccc3c(c21)C(C)=CC(C)(C)N3` (racemic) [Example 434, (+/−)2,5-Dihydro-9-(4-oxo-pentanoyloxy)-10-methoxy-2,2,4-trimethyl-5-allyl-1H-[1]benzopyrano[3,4-f]quinoline], the values for the Ki in test [1] (setting [3]) and in test [2] (setting [4]) were 123 nM and 0.96 nM, respectively.
